Each block holds one compound with its values, some of them ahead of it.
Tests used:
Full length Human HDAC6 = Full length Human HDAC6 (Homo sapiens (Human), UniProt Q9UBN7); assay: Caliper endpoint assay for HDAC enzymatic activity (HDAC6); format: biochemical; details: for IC50: in vitro enzymatic, 30 min pre-incubation, 1 μM FAM-RHKK(Ac)-NH2 substrate; for Selectivity (6 v 8) (fold): ratio of HDAC8 IC50/HDAC6 IC50
Full length Human HDAC8 = Full length Human HDAC8 (Homo sapiens (Human), UniProt Q9BY41); assay: Caliper endpoint assay for HDAC enzymatic activity (HDAC8); format: biochemical; details: in vitro enzymatic, 30 min pre-incubation, 1 μM FAM-RHKK(TFAc)-NH2 substrate
Full length Human HDAC8, sequence (Q9BY41 whole entry): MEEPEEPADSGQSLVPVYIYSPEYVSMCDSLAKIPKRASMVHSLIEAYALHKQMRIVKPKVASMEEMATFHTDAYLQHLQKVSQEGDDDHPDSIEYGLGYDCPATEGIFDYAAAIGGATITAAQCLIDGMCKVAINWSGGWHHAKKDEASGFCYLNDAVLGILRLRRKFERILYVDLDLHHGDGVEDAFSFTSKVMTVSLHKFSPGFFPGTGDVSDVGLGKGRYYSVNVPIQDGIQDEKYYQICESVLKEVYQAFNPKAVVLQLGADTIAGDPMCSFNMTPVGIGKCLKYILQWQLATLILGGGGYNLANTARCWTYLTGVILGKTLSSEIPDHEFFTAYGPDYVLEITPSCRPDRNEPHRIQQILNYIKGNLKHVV

Full length Human HDAC6, sequence (Q9UBN7 whole entry): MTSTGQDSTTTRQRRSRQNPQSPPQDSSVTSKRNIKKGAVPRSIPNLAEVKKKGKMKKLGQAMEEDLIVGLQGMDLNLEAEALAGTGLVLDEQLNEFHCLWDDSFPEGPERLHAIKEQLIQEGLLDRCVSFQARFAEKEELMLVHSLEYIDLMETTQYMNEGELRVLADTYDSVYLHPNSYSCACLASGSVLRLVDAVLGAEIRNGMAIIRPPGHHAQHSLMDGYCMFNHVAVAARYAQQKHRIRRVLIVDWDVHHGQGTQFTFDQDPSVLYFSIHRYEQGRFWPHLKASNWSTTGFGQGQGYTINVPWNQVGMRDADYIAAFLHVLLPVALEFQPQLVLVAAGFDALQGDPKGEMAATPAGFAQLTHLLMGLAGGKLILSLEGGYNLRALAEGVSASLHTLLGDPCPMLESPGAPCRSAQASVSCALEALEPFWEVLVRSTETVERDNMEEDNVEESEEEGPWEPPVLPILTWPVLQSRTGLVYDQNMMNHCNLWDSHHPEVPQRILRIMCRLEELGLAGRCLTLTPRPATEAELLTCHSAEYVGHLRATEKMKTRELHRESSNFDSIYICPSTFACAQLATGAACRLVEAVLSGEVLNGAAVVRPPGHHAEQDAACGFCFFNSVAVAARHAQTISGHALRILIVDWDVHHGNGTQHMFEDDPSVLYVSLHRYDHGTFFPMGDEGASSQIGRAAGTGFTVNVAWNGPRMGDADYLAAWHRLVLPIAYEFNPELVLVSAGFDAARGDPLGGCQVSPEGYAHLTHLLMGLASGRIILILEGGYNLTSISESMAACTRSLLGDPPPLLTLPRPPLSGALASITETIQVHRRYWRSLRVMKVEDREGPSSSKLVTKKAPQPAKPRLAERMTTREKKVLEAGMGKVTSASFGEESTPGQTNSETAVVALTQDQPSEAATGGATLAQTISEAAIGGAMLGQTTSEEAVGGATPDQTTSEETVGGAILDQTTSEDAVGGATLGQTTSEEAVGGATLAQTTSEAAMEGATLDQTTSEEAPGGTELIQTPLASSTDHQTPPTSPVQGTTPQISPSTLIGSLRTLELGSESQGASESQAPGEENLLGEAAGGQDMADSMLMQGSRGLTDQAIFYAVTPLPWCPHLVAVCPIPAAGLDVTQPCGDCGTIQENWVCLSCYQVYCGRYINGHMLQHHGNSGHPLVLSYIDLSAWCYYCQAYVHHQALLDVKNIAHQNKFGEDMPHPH

- IC50 (Full length Human HDAC6): 1 to 10 µM
- Selectivity (6 v 8) (fold) (Full length Human HDAC6): III (III: >10-100)
- IC50 (Full length Human HDAC8): 10 to 100 µM
Compound: O=C(NO)c1cc2c(cn1)CN(C1CC3(CCCCC3)C1)CC2 [DDD]

- IC50 (Full length Human HDAC6): 0.1 to 1 µM
- Selectivity (6 v 8) (fold) (Full length Human HDAC6): III (III: >10-100)
- IC50 (Full length Human HDAC8): 1 to 10 µM
Compound: CN1CCC2(CCC(N3CCc4cc(C(=O)NO)cnc4C3)C2)CC1 (centres unmarked) [Compound 417]

- IC50 (Full length Human HDAC6): 0.001 to 0.1 µM
- Selectivity (6 v 8) (fold) (Full length Human HDAC6): IV (IV: >100-1000)
- IC50 (Full length Human HDAC8): 10 to 100 µM
Compound: O=C(NO)c1cnc2c(c1)CCN([C@H]1CCC3(CCC3)C1)C2 (single isomer, unassigned) [Compound 383]

- IC50 (Full length Human HDAC6): 0.001 to 0.1 µM
- Selectivity (6 v 8) (fold) (Full length Human HDAC6): IV (IV: >100-1000)
- IC50 (Full length Human HDAC8): 1 to 10 µM
Compound: O=C(NO)c1cnc2c(c1)CCN(C1CC3(CCCC3)C1)C2 [Compound 183, N-hydroxy-7-(spiro[3.4]octan-2-yl)-5,6,7,8-tetrahydro-1,7-naphthyridine-3-carboxamide]

- IC50 (Full length Human HDAC6): 0.1 to 1 µM
- Selectivity (6 v 8) (fold) (Full length Human HDAC6): III (III: >10-100)
- IC50 (Full length Human HDAC8): 10 to 100 µM
Compound: CC(=O)N1CCC2(CC1)CC(N1CCc3cc(C(=O)NO)cnc3C1)C2 [Compound 199, 7-(7-acetyl-7-azaspiro[3.5]nonan-2-yl)-N-hydroxy-5,6,7,8-tetrahydro-1,7-naphthyridine-3-carboxamide]

- IC50 (Full length Human HDAC6): 0.001 to 0.1 µM
- Selectivity (6 v 8) (fold) (Full length Human HDAC6): IV (IV: >100-1000)
- IC50 (Full length Human HDAC8): 1 to 10 µM
Compound: O=C(NO)c1cnc2c(c1)CCN(C1CCC3(CCC3)CC1)C2 [Compound 192, N-hydroxy-7-(spiro[3.5]nonan-7-yl)-5,6,7,8-tetrahydro-1,7-naphthyridine-3-carboxamide]

- IC50 (Full length Human HDAC6): 0.1 to 1 µM
- Selectivity (6 v 8) (fold) (Full length Human HDAC6): III (III: >10-100)
- IC50 (Full length Human HDAC8): 1 to 10 µM
Compound: O=C(NO)c1cnc2c(c1)CCN(C1CC3(CCOCC3)C1)C2 [Compound 179, N-hydroxy-7-(7-oxaspiro[3.5]nonan-2-yl)-5,6,7,8-tetrahydro-1,7-naphthyridine-3-carboxamide]

- IC50 (Full length Human HDAC6): 0.1 to 1 µM
- Selectivity (6 v 8) (fold) (Full length Human HDAC6): V (V: >1000)
- IC50 (Full length Human HDAC8): > 100 µM
Compound: O=C(NO)c1ccc2c(n1)CCN(C1CC3(CCCCC3)C1)C2 [EEE]

The next lines start with the compound.

Compound: CN1CCC2(CC1)CC(N1CCc3cc(C(=O)NO)cnc3C1)C2 [Compound 198, N-hydroxy-7-(7-methyl-7-azaspiro[3.5]nonan-2-yl)-5,6,7,8-tetrahydro-1,7-naphthyridine-3-carboxamide]
- IC50 (Full length Human HDAC6): 0.1 to 1 µM
- Selectivity (6 v 8) (fold) (Full length Human HDAC6): III (III: >10-100)
- IC50 (Full length Human HDAC8): 1 to 10 µM

Compound: O=C(NO)c1cnc2c(c1)CCN([C@@H]1CCCC3(CCC3)C1)C2 (single isomer, unassigned) [Compound 194]
- IC50 (Full length Human HDAC6): 0.1 to 1 µM
- Selectivity (6 v 8) (fold) (Full length Human HDAC6): III (III: >10-100)
- IC50 (Full length Human HDAC8): 10 to 100 µM

Compound: O=C(NO)c1cnc2c(c1)CCN([C@H]1CCCC3(CCC3)C1)C2 (single isomer, unassigned) [Compound 195]
- IC50 (Full length Human HDAC6): 0.001 to 0.1 µM
- Selectivity (6 v 8) (fold) (Full length Human HDAC6): IV (IV: >100-1000)
- IC50 (Full length Human HDAC8): 1 to 10 µM

Compound: O=C(NO)c1cnc2c(c1)CCN(CC13CC4CC(CC(C4)O1)C3)C2 [Compound 14]
- IC50 (Full length Human HDAC6): 0.001 to 0.1 µM
- Selectivity (6 v 8) (fold) (Full length Human HDAC6): IV (IV: >100-1000)
- IC50 (Full length Human HDAC8): 10 to 100 µM

Compound: CN1CCC[C@]2(C1)C[C@@H](N1CCc3cc(C(=O)NO)cnc3C1)C2 (single isomer, unassigned) [Compound 343]
- IC50 (Full length Human HDAC6): 0.1 to 1 µM
- Selectivity (6 v 8) (fold) (Full length Human HDAC6): III (III: >10-100)
- IC50 (Full length Human HDAC8): 1 to 10 µM

Compound: O=C(NO)c1cnc2c(c1)CCN(C1CC3(CCCNC3)C1)C2 (single isomer, unassigned) [Compound 342]
- IC50 (Full length Human HDAC8): 10 to 100 µM

Compound: O=C(NO)c1ncc2c(n1)CCN(C1CC3(CCCCC3)C1)C2 [FFF, N-hydroxy-6-(spiro[3.5]nonan-2-yl)-5,6,7,8-tetrahydropyrido[4,3-d]pyrimidine-2-carboxamide]
- IC50 (Full length Human HDAC6): > 100 µM
- Selectivity (6 v 8) (fold) (Full length Human HDAC6): II (II: >1-10)
- IC50 (Full length Human HDAC8): > 100 µM

Compound: O=C(NO)c1cnc2c(c1)CCN([C@H]1C[C@]3(CCOC3)C1)C2 [Compound 189, N-hydroxy-7-((2s,4s)-6-oxaspiro[3.4]octan-2-yl)-5,6,7,8-tetrahydro-1,7-naphthyridine-3-carboxamide]
- IC50 (Full length Human HDAC6): 0.1 to 1 µM
- Selectivity (6 v 8) (fold) (Full length Human HDAC6): IV (IV: >100-1000)
- IC50 (Full length Human HDAC8): 10 to 100 µM

Compound: O=C(NO)c1cnc2c(c1)CCN(C1CC3(CNC3)C1)C2 [Compound 289]
- IC50 (Full length Human HDAC6): 0.1 to 1 µM
- Selectivity (6 v 8) (fold) (Full length Human HDAC6): III (III: >10-100)
- IC50 (Full length Human HDAC8): 10 to 100 µM

Compound: O=C(NO)c1cnc2c(c1)CCN(C1CC3(CCCNC3)C1)C2 (single isomer, unassigned) [Compound 341]
- IC50 (Full length Human HDAC8): 10 to 100 µM

Compound: O=C(NO)c1cnc2c(c1)CCN(C1CC3(CCCCC3)C1)C2 [Compound 16, N-hydroxy-7-(spiro[3.5]nonan-2-yl)-5,6,7,8-tetrahydro-1,7-naphthyridine-3-carboxamide]
- IC50 (Full length Human HDAC6): 0.001 to 0.1 µM
- Selectivity (6 v 8) (fold) (Full length Human HDAC6): IV (IV: >100-1000)
- IC50 (Full length Human HDAC8): 10 to 100 µM

Compound: O=C(NO)c1cnc2c(c1)CCN([C@H]1C[C@@]3(CCOC3)C1)C2 [Compound 188, N-hydroxy-7-((2r,4r)-6-oxaspiro[3.4]octan-2-yl)-5,6,7,8-tetrahydro-1,7-naphthyridine-3-carboxamide]
- IC50 (Full length Human HDAC6): 0.1 to 1 µM
- Selectivity (6 v 8) (fold) (Full length Human HDAC6): IV (IV: >100-1000)
- IC50 (Full length Human HDAC8): 10 to 100 µM

Compound: CN1CCC[C@]2(C1)C[C@H](N1CCc3cc(C(=O)NO)cnc3C1)C2 (single isomer, unassigned) [Compound 344]
- IC50 (Full length Human HDAC6): 0.1 to 1 µM
- Selectivity (6 v 8) (fold) (Full length Human HDAC6): III (III: >10-100)
- IC50 (Full length Human HDAC8): 1 to 10 µM

Compound: O=C(NO)c1cnc2c(c1)CCN(C1CC3(CCNCC3)C1)C2 [Compound 197, N-hydroxy-7-(7-azaspiro[3.5]nonan-2-yl)-5,6,7,8-tetrahydro-1,7-naphthyridine-3-carboxamide]
- IC50 (Full length Human HDAC6): 0.1 to 1 µM
- Selectivity (6 v 8) (fold) (Full length Human HDAC6): III (III: >10-100)
- IC50 (Full length Human HDAC8): 10 to 100 µM

Source: patent US20250179065A1, “HDAC6 INHIBITORS AND USES THEREOF” (Eikonizo Therapeutics, Inc., priority 2022, published 2025)
